{"source": "patent US20020115699A1", "about": "“Method for treating renal disease” (SmithKline Beecham p.l.c., priority 1994, published 2002)", "key": {"obese Zucker fa/fa rats": {"test_system": "obese Zucker fa/fa rats", "experiment": "Renal histopathology after 3 months dietary administration in obese Zucker fa/fa rats", "type": "in vivo, rat", "design": "key to Hydronephrosis (histopathological severity, kidney) / Chronic Nephropathy (histopathological severity, kidney): 0: None seen; ±: Minimal; +: Mild; + +: Moderate; + + +: Marked", "procedure": "Obese Zucker rats are known to develop chronic nephropathy in addition to hyperlipidaemia, hyperinsulinaemia and peripheral insulin resistance (Kasiske et al 1985).\n5-[4- [2-(N-methyl-N-(2-pyridyl)amino)ethoxy]benzyl]thiazolidine-2,4-dione (herein after referred to as ‘test compound’) was administered to 2-3 month old obese Zucker fa/fa rats by dietary administration to provide a daily dose over a period of 3 months ranging from 2.0-7.0 μmole/kg body weight. A group of age-matched obese Zucker fa/fa rats were given the same diet without the addition of the test compound, as was a group of lean Fa/? rats. At the end of the study, all of the control Zucker fa/fa rats had chronic nephropathy which involved dilated tubules, atrophied or hyperplastic tubular epithelial cells, thickened tubular basement membranes, segmented glomeruli or global glomerulosclerosis.\nIn the corresponding lean animals, 3/15 animals, a minimal degree of chronic nephropathy was seen.\nCharacteristically this involved dilation of the kidney pelvis."}, "[1]": {"test_system": "Zucker fatty (fa/fa) rats", "experiment": "Systolic blood pressure (tail cuff) in 9 month Zucker rat study", "type": "in vivo", "settings": "for SYSTOLIC BLOOD PRESSURE: Zucker fatty rats", "procedure": "A second study was performed in Zucker rats over a period of 9 months to investigate the longitudinal effects of the drug on systolic blood pressure and various indices of renal function, two of which are exemplified here. In one arm of the study, the drug was given in the diet (50 μmole/kg of diet) from aged 6-7 weeks in Zucker fatty (fa/fa) rats, whilst in a second arm of the study, drug treatment as above was delayed until proteinuria had become established after 4 months, indicative of structural damage already present in the kidneys. A third group of Zucker fatty rats and a further group of lean rats were given diet alone throughout the period of study.\nAfter dosing with the test compound, at monthly intervals measurements were made of systolic blood pressure, urinary total protein and urinary N-acetyl β-D-glucosaminidase (NAG) activity.\nRats were enclosed in custom-built restrainers and placed on a shelf in a warming cabinet, whose temperature was controlled at approximately 30° C. An inflatable cuff with integral pulse sensor was attached to the tail of each rat. After warming for 20-30 min the tail cuff was inflated and deflated automatically and a measurement of systolic blood pressure made using an IITC Non-Invasive Blood Pressure Monitor. This cycle was repeated several times for each rat until stable values of blood pressure were obtained.\nIn the tables below, results are given as mean values for the group ±the standard error of the mean. Results have been analysed by one way ANOVA and significant differences from the Zucker fatty rat control group have been indicated by an asterisk."}, "[2]": {"test_system": "Zucker fatty (fa/fa) rats", "experiment": "Urinary total protein (Bio-Rad dye-binding assay, 24 h urine) in 9 month Zucker rat study", "type": "in vivo", "settings": "for URINARY PROTEIN CONCENTRATION: Zucker fatty rats, 50 μmol/kg of diet from age 6-7 weeks (prior to renal complications), mean ± SEM", "procedure": "A second study was performed in Zucker rats over a period of 9 months to investigate the longitudinal effects of the drug on systolic blood pressure and various indices of renal function, two of which are exemplified here. […] A third group of Zucker fatty rats and a further group of lean rats were given diet alone throughout the period of study. After dosing with the test compound, at monthly intervals measurements were made of systolic blood pressure, urinary total protein and urinary N-acetyl β-D-glucosaminidase (NAG) activity. Twenty-four hour urine collections, made in metabolism cages, were aliquoted and frozen at −70° C. until required for assay. Urinary protein concentration was measured using the Bio-Rad protein assay as modified for use in a 96-well microtitre plate. The assay is a dye-binding assay based on the differential colour change of a dye in response to various concentrations of protein (Bradford, Anal. Biochem., 72, 248, 1976). After a period of incubation with Dye Reagent, diluted urine samples are read at an optical density of 595 nm using a Molecular Devices multiplate reader."}, "[3]": {"settings": "individual obese Zucker fa/fa rats, test compound in diet 2.0-7.0 μmole/kg body weight daily, 3 months"}, "[4]": {"settings": "Zucker fatty (fa/fa) rats treated from age 6-7 weeks for 9 months via the diet"}}, "note": "Several values for one entry are separate records, joined by “and”; a condition that tells them apart may be missing. Equal entries are not always repeated.", "data": [{"molecule": "CN(CCOc1ccc(CC2SC(=O)NC2=O)cc1)c1ccccn1", "note": "(centres unmarked) [Test Compound, 5-[4-[2-(N-methyl-N-(2-pyridyl)amino)ethoxy]benzyl]thiazolidine-2,4-dione]", "values": [{"measurement": "Chronic Nephropathy (histopathological severity, kidney)", "setting": "obese Zucker fa/fa rats; [3]", "result": "+ and ± (8×) and 0 and + +"}, {"measurement": "Hydronephrosis (histopathological severity, kidney)", "setting": "obese Zucker fa/fa rats; [3]", "result": 0}, {"measurement": "incidence and degree of chronic nephropathy", "setting": "obese Zucker fa/fa rats; obese Zucker fa/fa rats, 3 months in diet, compared to control Zucker fa/fa rats", "result": "reduction in the incidence and degree of chronic nephropathy"}, {"measurement": "hydronephrosis", "setting": "obese Zucker fa/fa rats; obese Zucker fa/fa rats, 3 months in diet, control 4/9 mild-moderate", "result": "No hydronephrosis was seen"}, {"measurement": "development of hypertension", "setting": "[1]; [4]", "result": "prevented the development of hypertension"}, {"measurement": "SYSTOLIC BLOOD PRESSURE", "setting": "[1]; 50 μmol/kg of diet from age 6-7 weeks (prior to renal complications), treatment duration 0 months, mean ± SEM", "result": "102 ± 3", "unit": "mm Hg"}, {"measurement": "SYSTOLIC BLOOD PRESSURE", "setting": "[1]; 50 μmol/kg of diet from age 6-7 weeks (prior to renal complications), treatment duration 1 month, mean ± SEM", "result": "110 ± 3", "unit": "mm Hg"}, {"measurement": "SYSTOLIC BLOOD PRESSURE", "setting": "[1]; 50 μmol/kg of diet from age 6-7 weeks (prior to renal complications), treatment duration 2 months, mean ± SEM", "result": "122 ± 4", "unit": "mm Hg"}, {"measurement": "SYSTOLIC BLOOD PRESSURE", "setting": "[1]; 50 μmol/kg of diet from age 6-7 weeks (prior to renal complications), treatment duration 3 months, mean ± SEM", "result": "122 ± 4", "unit": "mm Hg"}, {"measurement": "SYSTOLIC BLOOD PRESSURE", "setting": "[1]; 50 μmol/kg of diet from age 6-7 weeks (prior to renal complications), treatment duration 4 months, mean ± SEM", "result": "126 ± 6", "unit": "mm Hg"}, {"measurement": "SYSTOLIC BLOOD PRESSURE", "setting": "[1]; 50 μmol/kg of diet from age 6-7 weeks (prior to renal complications), treatment duration 5 months, mean ± SEM", "result": "131 ± 4", "unit": "mm Hg"}, {"measurement": "SYSTOLIC BLOOD PRESSURE", "setting": "[1]; 50 μmol/kg of diet from age 6-7 weeks (prior to renal complications), treatment duration 6 months, mean ± SEM", "result": "128 ± 3", "unit": "mm Hg"}, {"measurement": "SYSTOLIC BLOOD PRESSURE", "setting": "[1]; 50 μmol/kg of diet from age 6-7 weeks (prior to renal complications), treatment duration 7 months, mean ± SEM", "result": "125 ± 6", "unit": "mm Hg"}, {"measurement": "SYSTOLIC BLOOD PRESSURE", "setting": "[1]; 50 μmol/kg of diet from age 6-7 weeks (prior to renal complications), treatment duration 8 months, mean ± SEM", "result": "133 ± 5", "unit": "mm Hg"}, {"measurement": "SYSTOLIC BLOOD PRESSURE", "setting": "[1]; 50 μmol/kg of diet from age 6-7 weeks (prior to renal complications), treatment duration 9 months, mean ± SEM", "result": "143 ± 4", "unit": "mm Hg"}, {"measurement": "SYSTOLIC BLOOD PRESSURE", "setting": "[1]; 50 μmol/kg of diet started once renal complications established (after 4 months), treatment duration 0 months, mean ± SEM", "result": "146 ± 4", "unit": "mm Hg"}, {"measurement": "SYSTOLIC BLOOD PRESSURE", "setting": "[1]; 50 μmol/kg of diet started once renal complications established (after 4 months), treatment duration 1 month, mean ± SEM", "result": "140 ± 5", "unit": "mm Hg"}, {"measurement": "SYSTOLIC BLOOD PRESSURE", "setting": "[1]; 50 μmol/kg of diet started once renal complications established (after 4 months), treatment duration 2 months, mean ± SEM", "result": "134 ± 3", "unit": "mm Hg"}, {"measurement": "SYSTOLIC BLOOD PRESSURE", "setting": "[1]; 50 μmol/kg of diet started once renal complications established (after 4 months), treatment duration 3 months, mean ± SEM", "result": "144 ± 3", "unit": "mm Hg"}, {"measurement": "SYSTOLIC BLOOD PRESSURE", "setting": "[1]; 50 μmol/kg of diet started once renal complications established (after 4 months), treatment duration 4 months, mean ± SEM", "result": "139 ± 3", "unit": "mm Hg"}, {"measurement": "SYSTOLIC BLOOD PRESSURE", "setting": "[1]; 50 μmol/kg of diet started once renal complications established (after 4 months), treatment duration 5 months, mean ± SEM", "result": "146 ± 6", "unit": "mm Hg"}, {"measurement": "SYSTOLIC BLOOD PRESSURE", "setting": "[1]; 50 μmol/kg of diet started once renal complications established (after 4 months), treatment duration −1 month (before start of drug), mean ± SEM", "result": "141 ± 6", "unit": "mm Hg"}, {"measurement": "SYSTOLIC BLOOD PRESSURE", "setting": "[1]; 50 μmol/kg of diet started once renal complications established (after 4 months), treatment duration −2 months (before start of drug), mean ± SEM", "result": "138 ± 7", "unit": "mm Hg"}, {"measurement": "SYSTOLIC BLOOD PRESSURE", "setting": "[1]; 50 μmol/kg of diet started once renal complications established (after 4 months), treatment duration −3 months (before start of drug), mean ± SEM", "result": "123 ± 5", "unit": "mm Hg"}, {"measurement": "SYSTOLIC BLOOD PRESSURE", "setting": "[1]; 50 μmol/kg of diet started once renal complications established (after 4 months), treatment duration −4 months (before start of drug), mean ± SEM", "result": "106 ± 3", "unit": "mm Hg"}, {"measurement": "SYSTOLIC BLOOD PRESSURE", "setting": "[1]; drug treatment commenced after proteinuria had become established", "result": "prevented from rising further"}, {"measurement": "rate of development of proteinuria", "setting": "[2]; [4]", "result": "markedly reduced"}, {"measurement": "URINARY PROTEIN CONCENTRATION", "setting": "[2]; treatment duration 0 months", "result": "226 ± 15", "unit": "µg/h"}, {"measurement": "URINARY PROTEIN CONCENTRATION", "setting": "[2]; treatment duration 1 month", "result": "373 ± 22", "unit": "µg/h"}, {"measurement": "URINARY PROTEIN CONCENTRATION", "setting": "[2]; treatment duration 2 months", "result": "402 ± 22", "unit": "µg/h"}, {"measurement": "URINARY PROTEIN CONCENTRATION", "setting": "[2]; treatment duration 3 months", "result": "221 ± 32", "unit": "µg/h"}, {"measurement": "URINARY PROTEIN CONCENTRATION", "setting": "[2]; treatment duration 4 months", "result": "376 ± 54", "unit": "µg/h"}, {"measurement": "URINARY PROTEIN CONCENTRATION", "setting": "[2]; treatment duration 5 months", "result": "1573 ± 105", "unit": "µg/h"}, {"measurement": "URINARY PROTEIN CONCENTRATION", "setting": "[2]; treatment duration 6 months", "result": "1585 ± 147", "unit": "µg/h"}, {"measurement": "URINARY PROTEIN CONCENTRATION", "setting": "[2]; treatment duration 7 months", "result": "2124 ± 293", "unit": "µg/h"}]}]}
